The source of these data is ChEMBL document CHEMBL5537151, “Design, synthesis and bioactivity evaluation of novel fusion peptides and their CPT conjugates inducing effective anti-tumor responses on HER2 positive tumors” (Eur J Med Chem, 2024).

One series concerns SK-BR-3. The experiment in a line: cells. The settings on record: Homo sapiens, SK-BR-3, 48 h.
A short description of series [1]: Cytotoxicity against HER-negative human MCF-10A cells incubated for 48 hrs by CCK-8 assay. It counts as toxicity, cell-based. In general terms: Formazan colour is commonly taken as a measure of viable cells.
Another series has as its system NCI-N87. Kind of series: cells. Particulars: Homo sapiens, NCI-N87, 48 h.
The test system of the next series is SK-OV-3. The experiment in a line: cells. Particulars: Homo sapiens, SK-OV-3, 48 h.
For the next series, the system named is MDA-MB-231. Kind of series: cells. Particulars: Homo sapiens, MDA-MB-231, 48 h.

Usually IC50 stands for the point on the concentration scale where inhibition reaches its midpoint. Low values mean greater potency, high ones weaker potency.

Peptide text beside a SMILES is read from it. * marks the point of attachment. X7 = CCC1(OC(=O)CCCCCN2C(=O)CC(SC[C@H](N)C(=O)*)C2=O)C(=O)OCc2c1cc1n(c2=O)Cc2cc3ccccc3nc2-1; X2 = CCC1(OC(=O)CCCCCN2C(=O)CC(*)C2=O)C(=O)OCc2c1cc1n(c2=O)Cc2cc3ccccc3nc2-1; X4 = CCC1(OC(=O)OCCSSC[C@H](N)C(=O)*)C(=O)OCc2c1cc1n(c2=O)Cc2cc3ccccc3nc2-1; X3 = CCC1(OC(=O)CCSSC[C@H](N)C(=O)*)C(=O)OCc2c1cc1n(c2=O)Cc2cc3ccccc3nc2-1; X6 = CCC1(OC(=O)OCCS*)C(=O)OCc2c1cc1n(c2=O)Cc2cc3ccccc3nc2-1; X1 = CCC1(C(=O)OCCS*)C(=O)OCc2c1cc1n(c2=O)Cc2cc3ccccc3nc2-1; X5 = CCC1(OC(=O)CCS*)C(=O)OCc2c1cc1n(c2=O)Cc2cc3ccccc3nc2-1 Some results are limits rather than exact numbers.

Description for MDA-MB-231: Cytotoxicity against HER-negative human MDA-MB-231 cells incubated for 48 hrs by CCK-8 assay
Description for NCI-N87: Cytotoxicity against HER-positive human NCI-N87 cells incubated for 48 hrs by CCK-8 assay
Description for SK-BR-3: Cytotoxicity against HER-positive human SK-BR-3 cells incubated for 48 hrs by CCK-8 assay
Description for SK-OV-3: Cytotoxicity against HER-positive human SK-OV-3 cells incubated for 48 hrs by CCK-8 assay

For the molecule `CC[C@H](C)[C@H](NC(=O)[C@@H]1CCCN1C(=O)[C@@H](NC(=O)[C@H](C)N)C(C)C)C(=O)N[C@@H](C)C(=O)N[C@@H](CCC(N)=O)C(=O)N[C@@H](CCCCN)C(=O)N[C@@H](CSC1CC(=O)N(CCCCCC(=O)OC2(CC)C(=O)OCc3c2cc2n(c3=O)Cc3cc4ccccc4nc3-2)C1=O)C(=O)NCC(=O)N[C@@H](Cc1ccccc1)C(=O)N[C@@H](CC(C)C)C(=O)NCC(=O)N[C@@H](CC(N)=O)C(=O)N1CCC[C@H]1C(=O)N[C@@H](CC(N)=O)C(=O)N[C@@H](Cc1c[nH]c2ccccc12)C(=O)NCC(=O)N[C@@H](CCCNC(=N)N)C(=O)N[C@@H](CO)C(=O)N[C@@H](Cc1c[nH]c2ccccc12)C(=O)N[C@@H](Cc1ccc(O)cc1)C(=O)N[C@@H](CC(N)=O)C(=O)N[C@@H](CCC(N)=O)C(=O)N[C@@H](CCCNC(=N)N)C(=O)N[C@@H](Cc1ccccc1)C(=O)N[C@@H](CCCCN)C(N)=O` (stereo not given in full) (H-AVPIAQKC(X2)GFLGNPNWGRSWYNQRFK-NH2), the IC50 was 15.7 µM in the series on SK-BR-3, 20.1 µM in the series with NCI-N87, over 50 µM with SK-OV-3 and 28.2 µM in the series with MDA-MB-231. The same molecule gave an IC50 at 48 h in series [1] of over 50 µM.

On to `CC[C@H](C)[C@H](NC(=O)[C@@H]1CCCN1C(=O)[C@@H](NC(=O)[C@H](C)N)C(C)C)C(=O)N[C@@H](C)C(=O)N[C@@H](CCC(N)=O)C(=O)N[C@@H](CCCCN)C(=O)N[C@@H](CSSCCC(=O)OC1(CC)C(=O)OCc2c1cc1n(c2=O)Cc2cc3ccccc3nc2-1)C(=O)NCC(=O)N[C@@H](Cc1ccccc1)C(=O)N[C@@H](CC(C)C)C(=O)NCC(=O)N[C@@H](CC(N)=O)C(=O)N1CCC[C@H]1C(=O)N[C@@H](CC(N)=O)C(=O)N[C@@H](Cc1c[nH]c2ccccc12)C(=O)NCC(=O)N[C@@H](CCCNC(=N)N)C(=O)N[C@@H](CO)C(=O)N[C@@H](Cc1c[nH]c2ccccc12)C(=O)N[C@@H](Cc1ccc(O)cc1)C(=O)N[C@@H](CC(N)=O)C(=O)N[C@@H](CCC(N)=O)C(=O)N[C@@H](CCCNC(=N)N)C(=O)N[C@@H](Cc1ccccc1)C(=O)N[C@@H](CCCCN)C(N)=O` (stereo not given in full) (H-AVPIAQKC(X5)GFLGNPNWGRSWYNQRFK-NH2), for which the IC50 with SK-BR-3 came out at 1.78 µM; in the series on NCI-N87 it was 6.53 µM; in the series with SK-OV-3, 5.81 µM; with MDA-MB-231 it was 16.2 µM. This molecule returned an IC50 at 48 h in series [1] of 22.1 µM.

With `CC[C@H](C)[C@H](NC(=O)[C@@H]1CCCN1C(=O)[C@@H](NC(=O)[C@H](C)N)C(C)C)C(=O)N[C@@H](C)C(=O)N[C@@H](CCC(N)=O)C(=O)N[C@@H](CCCCN)C(=O)NCC(=O)N[C@@H](Cc1ccccc1)C(=O)N[C@@H](CC(C)C)C(=O)NCC(=O)N[C@@H](CSSCCOC(=O)C1(CC)C(=O)OCc2c1cc1n(c2=O)Cc2cc3ccccc3nc2-1)C(=O)N[C@@H](CC(N)=O)C(=O)N1CCC[C@H]1C(=O)N[C@@H](CC(N)=O)C(=O)N[C@@H](Cc1c[nH]c2ccccc12)C(=O)NCC(=O)N[C@@H](CCCNC(=N)N)C(=O)N[C@@H](CO)C(=O)N[C@@H](Cc1c[nH]c2ccccc12)C(=O)N[C@@H](Cc1ccc(O)cc1)C(=O)N[C@@H](CC(N)=O)C(=O)N[C@@H](CCC(N)=O)C(=O)N[C@@H](CCCNC(=N)N)C(=O)N[C@@H](Cc1ccccc1)C(=O)N[C@@H](CCCCN)C(N)=O` (stereo not given in full) (H-AVPIAQKGFLGC(X1)NPNWGRSWYNQRFK-NH2), the concentration for half-maximal inhibition (IC50) with SK-BR-3 stood at 2.59 µM; with NCI-N87, 5.93 µM; in the series with SK-OV-3, 8.24 µM; with MDA-MB-231, 10.6 µM. The IC50 at 48 h in series [1] was 15.1 µM.

Turning to `CC[C@H](C)[C@H](NC(=O)[C@@H]1CCCN1C(=O)[C@@H](NC(=O)[C@H](C)N)C(C)C)C(=O)N[C@@H](C)C(=O)N[C@@H](CCC(N)=O)C(=O)N[C@@H](CCCCN)C(=O)NCC(=O)N[C@@H](Cc1ccccc1)C(=O)N[C@@H](CC(C)C)C(=O)NCC(=O)N[C@@H](CSC1CC(=O)N(CCCCCC(=O)OC2(CC)C(=O)OCc3c2cc2n(c3=O)Cc3cc4ccccc4nc3-2)C1=O)C(=O)N[C@@H](CC(N)=O)C(=O)N1CCC[C@H]1C(=O)N[C@@H](CC(N)=O)C(=O)N[C@@H](Cc1c[nH]c2ccccc12)C(=O)NCC(=O)N[C@@H](CCCNC(=N)N)C(=O)N[C@@H](CO)C(=O)N[C@@H](Cc1c[nH]c2ccccc12)C(=O)N[C@@H](Cc1ccc(O)cc1)C(=O)N[C@@H](CC(N)=O)C(=O)N[C@@H](CCC(N)=O)C(=O)N[C@@H](CCCNC(=N)N)C(=O)N[C@@H](Cc1ccccc1)C(=O)N[C@@H](CCCCN)C(N)=O` (stereo not given in full) (H-AVPIAQKGFLGC(X2)NPNWGRSWYNQRFK-NH2), the IC50 in the series with SK-BR-3 is 18.3 µM; in the series with NCI-N87 it was 25.3 µM; with SK-OV-3, over 50 µM; with MDA-MB-231 it was 30.6 µM. Also, the IC50 at 48 h in series [1] is over 50 µM.

For the molecule `CC[C@H](C)[C@H](NC(=O)[C@@H]1CCCN1C(=O)[C@@H](NC(=O)[C@H](C)N)C(C)C)C(=O)N[C@@H](C)C(=O)N[C@@H](CCC(N)=O)C(=O)N[C@@H](CCCCN)C(=O)NCC(=O)N[C@@H](Cc1ccccc1)C(=O)N[C@@H](CC(C)C)C(=O)NCC(=O)N[C@@H](CSSCCOC(=O)OC1(CC)C(=O)OCc2c1cc1n(c2=O)Cc2cc3ccccc3nc2-1)C(=O)N[C@@H](CC(N)=O)C(=O)N1CCC[C@H]1C(=O)N[C@@H](CC(N)=O)C(=O)N[C@@H](Cc1c[nH]c2ccccc12)C(=O)NCC(=O)N[C@@H](CCCNC(=N)N)C(=O)N[C@@H](CO)C(=O)N[C@@H](Cc1c[nH]c2ccccc12)C(=O)N[C@@H](Cc1ccc(O)cc1)C(=O)N[C@@H](CC(N)=O)C(=O)N[C@@H](CCC(N)=O)C(=O)N[C@@H](CCCNC(=N)N)C(=O)N[C@@H](Cc1ccccc1)C(=O)N[C@@H](CCCCN)C(N)=O` (stereo not given in full) (H-AVPIAQKGFLGC(X6)NPNWGRSWYNQRFK-NH2), the IC50 is 0.85 µM in the series with SK-BR-3, 3.04 µM with NCI-N87, 4.03 µM in the series on SK-OV-3 and 6.43 µM in the series on MDA-MB-231. In series [1], this molecule gave an IC50 at 48 h of 18.2 µM.

As for `CC[C@H](C)[C@H](NC(=O)[C@@H]1CCCN1C(=O)[C@@H](NC(=O)[C@H](C)N)C(C)C)C(=O)N[C@@H](C)C(=O)N[C@@H](CCC(N)=O)C(=O)N[C@@H](CCCCN)C(=O)NCC(=O)N[C@@H](Cc1ccccc1)C(=O)N[C@@H](CC(C)C)C(=O)NCC(=O)N[C@@H](CC(N)=O)C(=O)N1CCC[C@H]1C(=O)N[C@@H](CC(N)=O)C(=O)N[C@@H](Cc1c[nH]c2ccccc12)C(=O)NCC(=O)N[C@@H](CCCNC(=N)N)C(=O)N[C@@H](CO)C(=O)N[C@@H](Cc1c[nH]c2ccccc12)C(=O)N[C@@H](Cc1ccc(O)cc1)C(=O)N[C@@H](CC(N)=O)C(=O)N[C@@H](CCC(N)=O)C(=O)N[C@@H](CCCNC(=N)N)C(=O)N[C@@H](Cc1ccccc1)C(=O)N[C@@H](CCCCNC(=O)[C@@H](N)CSSCCC(=O)OC1(CC)C(=O)OCc2c1cc1n(c2=O)Cc2cc3ccccc3nc2-1)C(N)=O` (stereo not given in full) (H-AVPIAQKGFLGNPNWGRSWYNQRFK(X3)-NH2), the IC50 in the series on SK-BR-3 is 2.3 µM; with NCI-N87, 8.01 µM; with SK-OV-3, 4.73 µM; in the series on MDA-MB-231, 15.1 µM. The IC50 at 48 h in series [1] was determined as 28.4 µM.

Consider `CC[C@H](C)[C@H](NC(=O)[C@@H]1CCCN1C(=O)[C@@H](NC(=O)[C@H](C)N)C(C)C)C(=O)N[C@@H](C)C(=O)N[C@@H](CCC(N)=O)C(=O)N[C@@H](CCCCN)C(=O)NCC(=O)N[C@@H](Cc1ccccc1)C(=O)N[C@@H](CC(C)C)C(=O)NCC(=O)N[C@@H](CC(N)=O)C(=O)N1CCC[C@H]1C(=O)N[C@@H](CC(N)=O)C(=O)N[C@@H](Cc1c[nH]c2ccccc12)C(=O)NCC(=O)N[C@@H](CCCNC(=N)N)C(=O)N[C@@H](CO)C(=O)N[C@@H](Cc1c[nH]c2ccccc12)C(=O)N[C@@H](Cc1ccc(O)cc1)C(=O)N[C@@H](CC(N)=O)C(=O)N[C@@H](CCC(N)=O)C(=O)N[C@@H](CCCNC(=N)N)C(=O)N[C@@H](Cc1ccccc1)C(=O)N[C@@H](CCCCNC(=O)[C@@H](N)CSSCCOC(=O)OC1(CC)C(=O)OCc2c1cc1n(c2=O)Cc2cc3ccccc3nc2-1)C(N)=O` (stereo not given in full) (H-AVPIAQKGFLGNPNWGRSWYNQRFK(X4)-NH2), for which the IC50 with SK-BR-3 came out at 0.58 µM; in the series on NCI-N87 it was 3.86 µM; in the series with SK-OV-3, 6.17 µM; in the series with MDA-MB-231, 4.73 µM. The molecule further returned an IC50 at 48 h in series [1] of 15.2 µM.

Turning to `CC[C@H](C)[C@H](NC(=O)[C@@H]1CCCN1C(=O)[C@@H](NC(=O)[C@H](C)N)C(C)C)C(=O)N[C@@H](C)C(=O)N[C@@H](CCC(N)=O)C(=O)N[C@@H](CCCCN)C(=O)NCC(=O)N[C@@H](Cc1ccccc1)C(=O)N[C@@H](CC(C)C)C(=O)NCC(=O)N[C@@H](CC(N)=O)C(=O)N1CCC[C@H]1C(=O)N[C@@H](CC(N)=O)C(=O)N[C@@H](Cc1c[nH]c2ccccc12)C(=O)NCC(=O)N[C@@H](CCCNC(=N)N)C(=O)N[C@@H](CO)C(=O)N[C@@H](Cc1c[nH]c2ccccc12)C(=O)N[C@@H](Cc1ccc(O)cc1)C(=O)N[C@@H](CC(N)=O)C(=O)N[C@@H](CCC(N)=O)C(=O)N[C@@H](CCCNC(=N)N)C(=O)N[C@@H](Cc1ccccc1)C(=O)N[C@@H](CCCCNC(=O)[C@@H](N)CSC1CC(=O)N(CCCCCC(=O)OC2(CC)C(=O)OCc3c2cc2n(c3=O)Cc3cc4ccccc4nc3-2)C1=O)C(N)=O` (stereo not given in full) (H-AVPIAQKGFLGNPNWGRSWYNQRFK(X7)-NH2), the IC50 is 12.6 µM with SK-BR-3, 24.2 µM in the series with NCI-N87, over 50 µM in the series with SK-OV-3 and 31.4 µM in the series on MDA-MB-231. In series [1], this molecule showed an IC50 at 48 h of over 50 µM.
